In patent US6413990B1, “Arylsulphonamide-substituted benzimidazoles having tryptase-inhibiting activity” (Boehringer Ingelheim Pharma KG, priority 1999, dated 2002) one finds melting point and IC50 data, which are given here for three compounds.

Where a name gives a salt, the structure may show the parent alone.

For one series, the target named is T1, rh beta tryptase (Homo sapiens, UniProt Q15661).
T1 construct: purchased Promega
The experiment in a line: tryptase inhibition test (cleavage of N-p-tosyl-Gly-Pro-Lys-para-nitroaniline, p-nitroaniline measured at 405 nm). Format: biochemical. The note with it: Tris HCl buffer pH 7.4 with calcium and heparin, 37° C., substrate 0.6 mM, 5 minutes pre-incubation, 5 minutes incubation. As to the method: The compounds according to the invention are characterised by their tryptase-inhibiting activity. This ability to inhibit tryptase was investigated using the test described below.
The measurement is carried out in Tris HCl buffer (100 mM), which additionally contains calcium (5 mM) and heparin ([…]), at pH 7.4. The standard used is rh beta tryptase which may be obtained commercially from Promega, for example. The substrate used is N-p-tosyl-Gly-Pro-Lys-para-nitroaniline in a concentration of 0.6 mM. The substrate is digested with tryptase to form p-nitroaniline which can be measured at 405 nm. Usually, an incubation period of 5 minutes and an incubation temperature of 37° C. are chosen. The enzyme activity used is 0.91 U/ml. The measurements are carried out in an Autoanalyser (Cobas Bio) made by Hofmann LaRoche. The potential inhibitory substances are used in concentrations of 10 μM in the screening, the inhibition of the tryptase being given in percent. The IC50 is determined at over 70% inhibition (concentration at which 50% of the enzyme activity is inhibited). After 5 minutes pre-incubation of the potential inhibitory substances, the substrate is added to start the reaction, the formation of p-nitroaniline being taken as a measurement of the enzyme activity after 5 minutes, after testing the linearity.
The data obtained after carrying out the tests described above (IC50 values) can be found in Table 2.

T1 sequence (Q15661 31-275): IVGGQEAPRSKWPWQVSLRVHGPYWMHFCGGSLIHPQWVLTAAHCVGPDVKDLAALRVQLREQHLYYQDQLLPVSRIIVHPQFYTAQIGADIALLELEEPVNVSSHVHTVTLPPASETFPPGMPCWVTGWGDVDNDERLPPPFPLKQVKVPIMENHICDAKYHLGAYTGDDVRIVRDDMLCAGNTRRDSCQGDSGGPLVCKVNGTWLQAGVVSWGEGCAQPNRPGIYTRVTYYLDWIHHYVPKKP

One may read the melting point as the temperature, or range, at which the solid turns liquid. Consider `CN(C)c1cccc2c(S(=O)(=O)N(C)c3ccc4c(c3)nc(CCc3ccc(C(=N)N)cc3)n4C)cccc12` (as salt: hydrochloride) [Example 13, N-{2-[2-(4-amidinophenyl)-ethyl]-1-methyl-benzimidazol-5-yl}-N-methyl-(dansylamide)-hydrochloride], for which the melting point was in the range of 222 to 225 °C.

The IC50 is the concentration that gives 50% inhibition. As for `CCN(CC)CCN(c1ccc2c(c1)nc(CCc1ccc(C(=N)N)cc1)n2C)S(=O)(=O)c1ccc(Cl)cc1` [Example 10, N-{2-[2-(4-amidinophenyl)-ethyl]-1-methyl-benzimidazol-5-yl}-N-diethylaminoethyl-(4-chloro-benzenesulphonamide)], the melting point was 88 to 90 °C. In addition, the IC50 on rh beta tryptase is 49 nM. With `CCN(CC)CCN(c1ccc2c(c1)nc(CCc1ccc(C(N)=NO)cc1)n2C)S(=O)(=O)c1cccc(Br)c1` [Example 36, N-{2-[2-(4-amino-hydroximinomethyl)phenyl-ethyl]-1-methyl-benzimidazol-5-yl}-N-diethylaminoethyl-(3-bromo-benzenesulphonamide)], the melting point amounted to 156 °C.
